What was measured:
Heat shock protein HSP90 = Heat shock protein HSP90 (Homo sapiens, UniProt P07900+P08238); type: cell-based; settings: au565
[1] = Binding affinity to pig spleen Hsp90 ATPase pocket by Bradford assay; type: tissue-based, Sus scrofa

Cc1nn(-c2ccc(C(N)=O)c(NC3CCOCC3)c2)c2c1C(=O)CC(C)(C)C2
IC50 (Heat shock protein HSP90): 50 nM | Kd [1]: 43 nM

CC1(C)CC(=O)c2c(C(F)(F)F)nn(-c3ccc(C(N)=O)c(NCCCN4CCCC4=O)c3)c2C1
IC50 (Heat shock protein HSP90): 264 nM | Kd [1]: 94 nM

Cc1c2c(n(-c3ccc(C(N)=O)c(N[C@H]4CC[C@H](O)CC4)c3)c1C)CC(C)(C)CC2=O
IC50 (Heat shock protein HSP90): 64 nM | Kd [1]: 86 nM

Cc1cn(-c2ccc(C(N)=O)c(N[C@@H](C)c3ccccc3)c2)c2c1C(=O)CC(C)(C)C2
IC50 (Heat shock protein HSP90): 418 nM | Kd [1]: 1020 nM

CC(C)c1nn(-c2ccc(C(N)=O)c(N[C@H]3CC[C@H](O)CC3)c2)c2c1C(=O)CC(C)(C)C2
IC50 (Heat shock protein HSP90): 203 nM | Kd [1]: 177 nM

CSCCNc1cc(-n2nc(C)c3c2CC(C)(C)CC3=O)ccc1C(N)=O
IC50 (Heat shock protein HSP90): 226 nM | Kd [1]: 63 nM

Cc1cc2c(n1-c1ccc(C(N)=O)c(Nc3ccccc3)c1)CC(C)(C)CC2=O
IC50 (Heat shock protein HSP90): 6400 nM | Kd [1]: 370 nM

COCCNc1cc(-n2c(C)cc3c2CC(C)(C)CC3=O)ccc1C(N)=O
IC50 (Heat shock protein HSP90): > 10000 nM | Kd [1]: 390 nM

Cc1cc2c(n1-c1ccc(C(N)=O)cc1)CC(C)(C)CC2=O
IC50 (Heat shock protein HSP90): > 100000 nM | Kd [1]: 3730 nM

CCCCCc1cc(-n2c(C)cc3c2CC(C)(C)CC3=O)ccc1C(N)=O
IC50 (Heat shock protein HSP90): > 10000 nM | Kd [1]: 1960 nM

CC1(C)CC(=O)c2c(CC3CC3)nn(-c3ccc(C(N)=O)c(N[C@H]4CC[C@H](O)CC4)c3)c2C1
IC50 (Heat shock protein HSP90): 46 nM | Kd [1]: 41 nM

CCCCOc1cc(-n2c(C)cc3c2CC(C)(C)CC3=O)ccc1C(N)=O
IC50 (Heat shock protein HSP90): > 10000 nM | Kd [1]: > 50000 nM

COc1ccc(Nc2cc(-n3c(C)cc4c3CC(C)(C)CC4=O)ccc2C(N)=O)cc1
IC50 (Heat shock protein HSP90): 1590 nM | Kd [1]: 690 nM

Cc1cc2c(n1-c1ccc(C(N)=O)c(Sc3ccccc3)c1)CC(C)(C)CC2=O
IC50 (Heat shock protein HSP90): > 10000 nM | Kd [1]: 1060 nM

COc1cc(Nc2cc(-n3cc(C)c4c3CC(C)(C)CC4=O)ccc2C(N)=O)cc(OC)c1OC
IC50 (Heat shock protein HSP90): 46 nM | Kd [1]: 390 nM

CC1(C)CC(=O)c2c(C(F)F)nn(-c3ccc(C(N)=O)c(N[C@H]4CC[C@H](O)CC4)c3)c2C1
IC50 (Heat shock protein HSP90): 16 nM | Kd [1]: 98 nM

CC1(C)CC(=O)c2c(C(F)(F)F)nn(-c3ccc(C(N)=O)c(N[C@H]4CC[C@@H](O)CC4)c3)c2C1
Kd [1]: 530 nM

CC1(C)CC(=O)c2c(C(F)F)nn(-c3ccc(C(N)=O)c(NC4CCSCC4)c3)c2C1
IC50 (Heat shock protein HSP90): 35 nM | Kd [1]: 11 nM

Cc1nn(-c2ccc(C(N)=O)c(NCc3ccco3)c2)c2c1C(=O)CC(C)(C)C2
IC50 (Heat shock protein HSP90): > 1000 nM | Kd [1]: 216 nM

Cc1nn(-c2ccc(C(N)=O)c(NCC3CC3)c2)c2c1C(=O)CC(C)(C)C2
IC50 (Heat shock protein HSP90): 184 nM | Kd [1]: 51 nM

Cc1nn(-c2ccc(C(N)=O)c(NC(C)S(C)(=O)=O)c2)c2c1C(=O)CC(C)(C)C2 (centres undefined)
IC50 (Heat shock protein HSP90): 147 nM | Kd [1]: 14 nM

COCC(C)Nc1cc(-n2nc(C)c3c2CC(C)(C)CC3=O)ccc1C(N)=O (centres undefined)
IC50 (Heat shock protein HSP90): 115 nM | Kd [1]: 67 nM

CCCCNc1cc(-n2c(C)cc3c2CC(C)(C)CC3=O)ccc1C(N)=O
IC50 (Heat shock protein HSP90): > 10000 nM | Kd [1]: 390 nM

COc1cc(Nc2cc(-n3c(C)cc4c3CC(C)(C)CC4=O)ccc2C(N)=O)cc(OC)c1OC
IC50 (Heat shock protein HSP90): 490 nM | Kd [1]: 220 nM

COc1cc(Nc2cc(-n3ccc4c3CC(C)(C)CC4=O)ccc2C(N)=O)cc(OC)c1OC
IC50 (Heat shock protein HSP90): 1830 nM | Kd [1]: 0.59 nM

CCc1nn(-c2ccc(C(N)=O)c(N[C@H]3CC[C@H](O)CC3)c2)c2c1C(=O)CC(C)(C)C2
IC50 (Heat shock protein HSP90): 9 nM | Kd [1]: 20 nM

Cc1nn(-c2ccc(C(N)=O)c(N[C@H]3CC[C@H](O)CC3)c2)c2c1C(=O)CC(C)(C)C2
IC50 (Heat shock protein HSP90): 30 nM | Kd [1]: 16 nM

Cc1nn(-c2ccc(C(N)=O)c(NC3CCC3)c2)c2c1C(=O)CC(C)(C)C2
IC50 (Heat shock protein HSP90): 229 nM | Kd [1]: 114 nM

COCC(COC)Nc1cc(-n2nc(C(F)(F)F)c3c2CC(C)(C)CC3=O)ccc1C(N)=O
IC50 (Heat shock protein HSP90): 181 nM | Kd [1]: 78 nM

Cc1nn(-c2ccc(C(N)=O)c(NC3CC=CC3)c2)c2c1C(=O)CC(C)(C)C2
IC50 (Heat shock protein HSP90): 111 nM | Kd [1]: 15 nM

— ChEMBL document CHEMBL1158466, “Discovery of novel 2-aminobenzamide inhibitors of heat shock protein 90 as potent, selective and orally active antitumor agents” (J Med Chem, 2009)
